Measured values reported in patent US8273762B2, “Hexahydro-pyrrolo-isoquinoline compounds” (Janssen Pharmaceutica NV, priority 2005, dated 2012).

Biological target: T1, cloned human H3 receptor, stably expressed in SK-N-MC cells (Homo sapiens, UniProt Q9Y5N1)
T1 construct: expressed in transfected cells
Assay: H3 receptor binding (N-[3H]-α-methylhistamine displacement)
Settings: SK-N-MC membranes, 0.8 nM N-[3H]-α-methylhistamine

T1 sequence (Q9Y5N1 whole entry): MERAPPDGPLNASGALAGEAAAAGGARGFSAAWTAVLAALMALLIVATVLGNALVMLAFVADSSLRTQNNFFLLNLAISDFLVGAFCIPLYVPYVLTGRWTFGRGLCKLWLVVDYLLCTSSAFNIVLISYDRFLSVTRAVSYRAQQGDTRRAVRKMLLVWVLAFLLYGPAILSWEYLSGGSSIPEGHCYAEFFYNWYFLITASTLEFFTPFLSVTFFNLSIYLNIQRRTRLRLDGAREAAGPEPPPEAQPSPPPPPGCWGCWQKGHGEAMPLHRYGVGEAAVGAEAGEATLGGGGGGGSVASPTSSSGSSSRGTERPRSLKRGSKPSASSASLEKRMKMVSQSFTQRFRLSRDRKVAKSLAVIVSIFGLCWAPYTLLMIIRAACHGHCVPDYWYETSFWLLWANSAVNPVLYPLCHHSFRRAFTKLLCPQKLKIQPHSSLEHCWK

SMILES	Ki [nM]
O=[N+]([O-])c1ccc([C@@H]2CN3CCC[C@H]3c3cccc(OCCCN4CCCCC4)c32)cc1 (relative stereo) [Example 2C, Trans-6-(4-Nitro-phenyl)-7-(3-piperidin-1-yl-propoxy)-1,2,3,5,6,10b-hexahydro-pyrrolo[2,1-a]isoquinoline]	29
Cc1ccc([C@@H]2CN3CCC[C@H]3c3cccc(OCCCN4CCCCC4)c32)cc1 (relative stereo) [Example 5C, Trans-7-(3-Piperidine-1-yl-propoxy)-6-p-tolyl-1,2,3,5,6,10b-hexahydro-pyrrolo[2,1-a]isoquinoline]	85
FC(F)(F)c1ccc([C@@H]2CN3CCC[C@H]3c3cc(OCCCN4CCCCC4)ccc32)cc1 (relative stereo) [Example 7B, Trans-9-(3-Piperidin-1-yl-propoxy)-6-(4-trifluoromethyl-phenyl)-1,2,3,5,6,10b-hexahydro-pyrrolo[2,1-a]isoquinoline]	2
c1cnc([C@H]2CN3CCC[C@H]3c3cc(OCCCN4CCOCC4)ccc32)cn1 (relative stereo) [Example 50B, Trans-9-(3-Morpholin-4-yl-propoxy)-6-pyrazin-2-yl-1,2,3,5,6,10b-hexahydro-pyrrolo[2,1-a]isoquinoline]	181
O=[N+]([O-])c1cccc([C@H]2CN3CCC[C@H]3c3cccc(OCCCN4CCCCC4)c32)c1 (relative stereo) [Example 4C, Cis-6-(3-Nitro-phenyl)-7-(3-piperidin-1-yl-propoxy)-1,2,3,5,6,10b-hexahydro-pyrrolo[2,1-a]isoquinoline]	98
c1cnc([C@@H]2CN3CCC[C@H]3c3cc(OCCCN4CCOCC4)ccc32)cn1 (relative stereo) [Example 50A, Cis-9-(3-Morpholin-4-yl-propoxy)-6-pyrazin-2-yl-1,2,3,5,6,10b-hexahydro-pyrrolo[2,1-a]isoquinoline]	4
c1ccc([C@H]2CN3CCC[C@H]3c3ccc(OCCCN4CCCCC4)cc32)cc1 (relative stereo) [Example 45]	16
Fc1ccc([C@@H]2CN3CCC[C@H]3c3cccc(OCCCN4CCCCC4)c32)cc1 (relative stereo) [Example 14C]	200
COc1ccc([C@H]2CN3CCC[C@H]3c3cc(OCCCN4CCOCC4)ccc32)cc1Cl (relative stereo) [Example 64]	3
Oc1ccc([C@@H]2CN3CCC[C@H]3c3cc(OCCCN4CCOCC4)ccc32)cn1 (relative stereo) [Example 51A, Cis-5-[9-(3-Morpholin-4-yl-propoxy)-1,2,3,5,6,10b-hexahydro-pyrrolo[2,1-a]isoquinolin-6-yl]-pyridin-2-ol]	3
Clc1ccccc1[C@H]1CN2CCC[C@H]2c2cccc(OCCCN3CCCCC3)c21 (relative stereo) [Example 12D, Trans-6-(2-Chloro-phenyl)-7-(3-piperidin-1-yl-propoxy)-1,2,3,5,6,10b-hexahydro-pyrrolo[2,1-a]isoquinoline]	74
c1cc([C@H]2CN3CCC[C@H]3c3cc(OCCCN4CCCCC4)ccc32)ccn1 (relative stereo) [Example 27B, Trans-9-(3-Piperidin-1-yl-propoxy)-6-pyridin-4-yl-1,2,3,5,6,10b-hexahydro-pyrrolo[2,1-a]isoquinoline]	0.3
c1ccc([C@@H]2CN3CCC[C@H]3c3ccc(OCCCN4CCCCC4)cc32)cc1 (relative stereo) [Example 44]	1
c1cn(-c2ccc([C@@H]3CN4CCC[C@H]4c4cc(OCCCN5CCOCC5)ccc43)cc2)cn1 (relative stereo) [Example 48A, Cis-6-(4-Imidazol-1-yl-phenyl)-9-(3-morpholin-4-yl-propoxy)-1,2,3,5,6,10b-hexahydro-pyrrolo[2,1-a]isoquinoline]	6
COc1ccc([C@@H]2CN3CCC[C@H]3c3cc(OCCCN4CCOCC4)ccc32)cc1 (racemic) [Example 93]	5
CSc1ccc([C@H]2CN3CCC[C@H]3c3cc(OCCCN4CCOCC4)ccc32)cc1 (relative stereo) [Example 63]	16
c1ccn2c([C@H]3CN4CCC[C@H]4c4cc(OCCCN5CCOCC5)ccc43)cnc2c1 (relative stereo) [Example 55]	2

The remaining molecules from weak to strong by Ki, led by results:

Ki [nM]	SMILES
91	Clc1ccccc1[C@@H]1CN2CCC[C@H]2c2cccc(OCCCN3CCCCC3)c21 (relative stereo) [Example 12C, Cis-6-(2-Chloro-phenyl)-7-(3-piperidin-1-yl-propoxy)-1,2,3,5,6,10b-hexahydro-pyrrolo[2,1-a]isoquinoline]
76	Clc1ccc([C@H]2CN3CCC[C@H]3c3cccc(OCCCN4CCCCC4)c32)cc1Cl (relative stereo) [Example 6C]
30	N#Cc1ccc([C@H]2CN3CCC[C@H]3c3ccc(OCCCN4CCCCC4)cc32)cc1 (relative stereo) [Example 43]
29	FC(F)(F)Sc1ccc([C@H]2CN3CCC[C@H]3c3cc(OCCCN4CCOCC4)ccc32)cc1 (relative stereo) [Example 61]
6	FC(F)(F)Sc1cccc([C@H]2CN3CCC[C@H]3c3cc(OCCCN4CCOCC4)ccc32)c1 (relative stereo) [Example 62]
5	Oc1ccc([C@H]2CN3CCC[C@H]3c3cc(OCCCN4CCOCC4)ccc32)cn1 (relative stereo) [Example 51B, Trans-5-[9-(3-Morpholin-4-yl-propoxy)-1,2,3,5,6,10b-hexahydro-pyrrolo[2,1-a]isoquinolin-6-yl]-pyridin-2-ol]
5	c1cn(-c2ccc([C@H]3CN4CCC[C@H]4c4cc(OCCCN5CCOCC5)ccc43)cc2)cn1 (relative stereo) [Example 48B, Trans-6-(4-Imidazol-1-yl-phenyl)-9-(3-morpholin-4-yl-propoxy)-1,2,3,5,6,10b-hexahydro-pyrrolo[2,1-a]isoquinoline]
5	c1cnn(-c2ccc([C@H]3CN4CCC[C@H]4c4cc(OCCCN5CCOCC5)ccc43)cc2)c1 (relative stereo) [Example 49]
4	COc1ccc([C@H]2CN3CCC[C@H]3c3cc(OCCCN4CCOCC4)ccc32)cc1F (relative stereo) [Example 65]
4	c1ncc([C@H]2CN3CCC[C@H]3c3cc(OCCCN4CCOCC4)ccc32)s1 (relative stereo) [Example 52]
4	c1cc([C@H]2CN3CCC[C@H]3c3cc(OCCCN4CCOCC4)ccc32)[nH]n1 (relative stereo) [Example 54]
3	CSc1ccc([C@H]2CN3CCC[C@H]3c3cc(C#CCCN4CCCCC4)ccc32)cc1 (relative stereo) [Example 98B, Trans-6-(4-methylsulfanyl-phenyl)-9-(4-piperidin-1-yl-but-1-ynyl)-1,2,3,5,6,10b-hexahydro-pyrrolo[2,1-a]isoquinoline]
3	c1cc([C@H]2CN3CCC[C@H]3c3cc(OCCCN4CCOCC4)ccc32)cs1 (relative stereo) [Example 56]
3	c1csc([C@H]2CN3CCC[C@H]3c3cc(OCCCN4CCOCC4)ccc32)n1 (relative stereo) [Example 53]
3	c1ccc([C@H]2CN3CCC[C@H]3c3cc(OCCCN4CCOCC4)ccc32)nc1 (relative stereo) [Example 60]
2	Brc1ccc([C@H]2CN3CCC[C@H]3c3ccc(OCCCN4CCCCC4)cc32)cc1 (relative stereo) [Example 42, Trans-6-(4-Bromo-phenyl)-8-(3-piperidin-1-yl-propoxy)-1,2,3,5,6,10b-hexahydro-pyrrolo[2,1-a]isoquinoline]
2	c1cncc([C@H]2CN3CCC[C@H]3c3cc(OCCCN4CCOCC4)ccc32)c1 (relative stereo) [Example 59]
2	N#Cc1cccc([C@H]2CN3CCC[C@H]3c3cc(OCCCN4CCOCC4)ccc32)c1 (relative stereo) [Example 58]
1	CSc1ccc([C@@H]2CN3CCC[C@H]3c3cc(OCCCN4CCCCC4)ccc32)cc1 (relative stereo) [Example 39B, Trans-6-(4-Methylsulfanyl-phenyl)-9-(3-piperidin-1-yl-propoxy)-1,2,3,5,6,10b-hexahydro-pyrrolo[2,1-a]isoquinoline]
1	O=[N+]([O-])c1cccc([C@@H]2CN3CCC[C@H]3c3cc(OCCCN4CCCCC4)ccc32)c1 (relative stereo) [Example 4B, Trans-6-(3-Nitro-phenyl)-9-(3-piperidin-1-yl-propoxy)-1,2,3,5,6,10b-hexahydro-pyrrolo[2,1-a]isoquinoline]
1	Cc1ccc([C@@H]2CN3CCC[C@H]3c3cc(OCCCN4CCCCC4)ccc32)cc1 (relative stereo) [Example 5B, Trans-9-(3-Piperidine-1-yl-propoxy)-6-p-tolyl-1,2,3,5,6,10b-hexahydro-pyrrolo[2,1-a]isoquinoline]
1	Clc1ccccc1[C@H]1CN2CCC[C@H]2c2cc(OCCCN3CCCCC3)ccc21 (relative stereo) [Example 12B, Trans-6-(2-Chloro-phenyl)-9-(3-piperidin-1-yl-propoxy)-1,2,3,5,6,10b-hexahydro-pyrrolo[2,1-a]isoquinoline]
1	Clc1ccc([C@H]2CN3CCC[C@H]3c3cc(OCCCN4CCCCC4)ccc32)cc1Cl (relative stereo) [Example 6B, Trans-6-(3,4-Dichloro-phenyl)-9-(3-piperidin-1-yl-propoxy)-1,2,3,5,6,10b-hexahydro-pyrrolo[2,1-a]isoquinoline]
1	c1cc([C@@H]2CN3CCC[C@H]3c3cc(OCCCN4CCCCC4)ccc32)ccn1 (relative stereo) [Example 27A, Cis-9-(3-Piperidin-1-yl-propoxy)-6-pyridin-4-yl-1,2,3,5,6,10b-hexahydro-pyrrolo[2,1-a]isoquinoline]
1	Clc1ccc([C@H]2CN3CCC[C@H]3c3cc(OCCCN4CCCCC4)ccc32)cc1 (relative stereo) [Example 66B, Trans-6-(4-chloro-phenyl)-9-(3-piperidin-1-yl-propoxy)-1,2,3,5,6,10b-hexahydro-pyrrolo[2,1-a]isoquinoline]

Biological target: T2, human H3 receptor (SK-N-MC cells) (Homo sapiens, UniProt Q9Y5N1)
T2 construct: expressed in transfected cells; host or cells: SK-N-MC sublines with CRE-beta-galactosidase reporter
Assay: Cyclic AMP accumulation (β-galactosidase reporter, Schild analysis vs histamine)
Type: cell-based
Settings: read-out: H3 pA2 (converted)

T2 sequence (Q9Y5N1 whole entry): as above

SMILES	Kb [nM]
CSc1ccc([C@H]2CN3CCC[C@H]3c3cc(C#CCCN4CCCCC4)ccc32)cc1 (relative stereo) [Example 98B, Trans-6-(4-methylsulfanyl-phenyl)-9-(4-piperidin-1-yl-but-1-ynyl)-1,2,3,5,6,10b-hexahydro-pyrrolo[2,1-a]isoquinoline]	2.51
FC(F)(F)c1ccc([C@@H]2CN3CCC[C@H]3c3cc(OCCCN4CCCCC4)ccc32)cc1 (relative stereo) [Example 7B, Trans-9-(3-Piperidin-1-yl-propoxy)-6-(4-trifluoromethyl-phenyl)-1,2,3,5,6,10b-hexahydro-pyrrolo[2,1-a]isoquinoline]	6.31
O=[N+]([O-])c1cccc([C@@H]2CN3CCC[C@H]3c3cc(OCCCN4CCCCC4)ccc32)c1 (relative stereo) [Example 4B, Trans-6-(3-Nitro-phenyl)-9-(3-piperidin-1-yl-propoxy)-1,2,3,5,6,10b-hexahydro-pyrrolo[2,1-a]isoquinoline]	0.158
Clc1ccccc1[C@H]1CN2CCC[C@H]2c2cc(OCCCN3CCCCC3)ccc21 (relative stereo) [Example 12B, Trans-6-(2-Chloro-phenyl)-9-(3-piperidin-1-yl-propoxy)-1,2,3,5,6,10b-hexahydro-pyrrolo[2,1-a]isoquinoline]	0.631
